Data reported in paper PMC5218480 (PLoS ONE, 2017).

Tested on: MV-4-11 cells
Assay: Gene expression microarray analysis (Affymetrix PrimeView) and GSEA
Assay type: cell-based, human
Set-up: RFU PODN (11730768_x_at) / Fold change /veh PODN (11730768_x_at) / RFU LINC00158 (11744669_a_at) / Fold change /veh LINC00158 (11744669_a_at) / RFU DUSP10 (11751237_a_at) / Fold change /veh DUSP10 (11751237_a_at) / RFU ID3 (11757404_x_at) / Fold change /veh ID3 (11757404_x_at) / RFU PLEKHG5 (11737974_s_at) / Fold change /veh PLEKHG5 (11737974_s_at) / RFU LRRC4B (11730491_at) / Fold change /veh LRRC4B (11730491_at) / RFU GIMAP4 (11747438_a_at) / Fold change /veh GIMAP4 (11747438_a_at) / RFU KRT8 (11758183_x_at) / Fold change /veh KRT8 (11758183_x_at) / RFU CNN1 (11734310_a_at) / Fold change /veh CNN1 (11734310_a_at) / RFU VPS37D (11726825_at) / Fold change /veh VPS37D (11726825_at) / RFU C10orf10 (11716522_x_at) / Fold change /veh C10orf10 (11716522_x_at) / RFU KIR2DL2 /// KIR2DL4 /// KIR2DL5A /// KIR2DL5B /// KIR2DS1 /// KIR2DS2 /// KIR2DS3 /// KIR2DS4 /// KIR3DL3 /// KIR3DL3 /// KIR3DS1 (11738374_at) / Fold change /veh KIR2DL2 /// KIR2DL4 /// KIR2DL5A /// KIR2DL5B /// KIR2DS1 /// KIR2DS2 /// KIR2DS3 /// KIR2DS4 /// KIR3DL3 /// KIR3DL3 /// KIR3DS1 (11738374_at) / RFU C1QL1 (11718748_at) / Fold change /veh C1QL1 (11718748_at) / RFU TMPRSS4 (11747572_a_at) / Fold change /veh TMPRSS4 (11747572_a_at) / RFU HAMP (11756126_x_at) / Fold change /veh HAMP (11756126_x_at) / RFU RNFT2 (11725882_a_at) / Fold change /veh RNFT2 (11725882_a_at) / RFU NR4A2 (11747474_a_at) / Fold change /veh NR4A2 (11747474_a_at) / RFU ABCC12 (11746883_a_at) / Fold change /veh ABCC12 (11746883_a_at) / RFU TMEM136 (11760407_x_at) / Fold change /veh TMEM136 (11760407_x_at) / RFU CLDN22 /// WWC2 (11732394_at) / Fold change /veh CLDN22 /// WWC2 (11732394_at) / RFU HLA-DPB1 (11760878_x_at) / Fold change /veh HLA-DPB1 (11760878_x_at) / RFU SPINT1 (11716480_a_at) / Fold change /veh SPINT1 (11716480_a_at) / RFU GAP43 (11754022_s_at) / Fold change /veh GAP43 (11754022_s_at) / RFU A4GNT (11735810_at) / Fold change /veh A4GNT (11735810_at) / RFU PRB3 (11715151_x_at) / Fold change /veh PRB3 (11715151_x_at) / RFU TUBB4B (11761932_at) / Fold change /veh TUBB4B (11761932_at) / RFU CAPN14 (11732068_a_at) / Fold change /veh CAPN14 (11732068_a_at) / RFU TMCC2 (11721928_a_at) / Fold change /veh TMCC2 (11721928_a_at) / RFU IRGQ (11745062_a_at) / Fold change /veh IRGQ (11745062_a_at) / RFU FAM174B (11720279_a_at) / Fold change /veh FAM174B (11720279_a_at) / RFU TMPRSS4 (11748680_a_at) / Fold change /veh TMPRSS4 (11748680_a_at) / RFU FAM212B (11763350_a_at) / Fold change /veh FAM212B (11763350_a_at) / RFU PLEKHG5 (11743358_a_at) / Fold change /veh PLEKHG5 (11743358_a_at) / RFU ZSCAN30 (11745921_a_at) / Fold change /veh ZSCAN30 (11745921_a_at) / RFU CMKLR1 (11741424_a_at) / Fold change /veh CMKLR1 (11741424_a_at) / RFU LOC101060620 /// MAPK8IP1 (11723275_at) / Fold change /veh LOC101060620 /// MAPK8IP1 (11723275_at) / RFU SPTSSB (11747773_x_at) / Fold change /veh SPTSSB (11747773_x_at) / RFU PRSS12 (11739890_at) / Fold change /veh PRSS12 (11739890_at) / RFU BIN1 (11741810_x_at) / Fold change /veh BIN1 (11741810_x_at) / RFU WNT11 (11732464_a_at) / Fold change /veh WNT11 (11732464_a_at) / RFU C10orf10 (11716521_a_at) / Fold change /veh C10orf10 (11716521_a_at) / RFU C5orf56 (11738089_at) / Fold change /veh C5orf56 (11738089_at) / RFU CYB561 (11721691_x_at) / Fold change /veh CYB561 (11721691_x_at) / RFU ANKRD19P (11752326_a_at) / Fold change /veh ANKRD19P (11752326_a_at) / RFU OR2T12 /// OR2T33 /// OR2T8 (11738714_s_at) / Fold change /veh OR2T12 /// OR2T33 /// OR2T8 (11738714_s_at) / RFU VCAN (11748164_a_at) / Fold change /veh VCAN (11748164_a_at) / RFU JSRP1 (11732532_at) / Fold change /veh JSRP1 (11732532_at) / RFU KRTAP10-11 (11738290_x_at) / Fold change /veh KRTAP10-11 (11738290_x_at) / RFU MYO3A (11730013_a_at) / Fold change /veh MYO3A (11730013_a_at) / RFU EBF3 (11725865_a_at) / Fold change /veh EBF3 (11725865_a_at) / RFU CAMK2N1 (11719241_x_at) / Fold change /veh CAMK2N1 (11719241_x_at) / RFU C5orf56 (11738088_a_at) / Fold change /veh C5orf56 (11738088_a_at) / RFU OLFML3 (11715873_a_at) / Fold change /veh OLFML3 (11715873_a_at) / RFU LOC100653217 /// NTM (11731650_a_at) / Fold change /veh LOC100653217 /// NTM (11731650_a_at) / RFU MAPK11 (11762145_a_at) / Fold change /veh MAPK11 (11762145_a_at) / RFU FIZ1 (11724087_x_at) / Fold change /veh FIZ1 (11724087_x_at) / RFU OASL (11726364_x_at) / Fold change /veh OASL (11726364_x_at) / RFU SOX15 (11748057_x_at) / Fold change /veh SOX15 (11748057_x_at) / RFU CD79A (11719716_a_at) / Fold change /veh CD79A (11719716_a_at) / RFU HIST1H1D (11736915_at) / Fold change /veh HIST1H1D (11736915_at) / RFU CASKIN2 (11723855_a_at) / Fold change /veh CASKIN2 (11723855_a_at) / RFU LOC730098 (11760151_x_at) / Fold change /veh LOC730098 (11760151_x_at) / RFU OR4N2 (11742367_at) / Fold change /veh OR4N2 (11742367_at) / RFU PRRT2 (11749266_a_at) / Fold change /veh PRRT2 (11749266_a_at) / RFU SNX32 (11753110_a_at) / Fold change /veh SNX32 (11753110_a_at) / RFU CDHR5 (11726645_a_at) / Fold change /veh CDHR5 (11726645_a_at) / RFU RCAN1 (11760418_a_at) / Fold change /veh RCAN1 (11760418_a_at) / RFU FAM167A (11723789_a_at) / Fold change /veh FAM167A (11723789_a_at) / RFU FAM26E (11764081_at) / Fold change /veh FAM26E (11764081_at) / RFU ISYNA1 (11749810_s_at) / Fold change /veh ISYNA1 (11749810_s_at) / RFU ACY1 (11761880_at) / Fold change /veh ACY1 (11761880_at) / RFU 11764098_at / Fold change /veh 11764098_at / RFU SAMD14 (11745864_x_at) / Fold change /veh SAMD14 (11745864_x_at) / RFU NPB (11741838_a_at) / Fold change /veh NPB (11741838_a_at) / RFU TMPRSS6 (11731388_a_at) / Fold change /veh TMPRSS6 (11731388_a_at) / RFU KRTAP10-2 (11738614_at) / Fold change /veh KRTAP10-2 (11738614_at) / RFU ARHGAP8 /// PRR5-ARHGAP8 (11727945_x_at) / Fold change /veh ARHGAP8 /// PRR5-ARHGAP8 (11727945_x_at) / RFU KRTAP5-7 /// NADSYN1 (11734609_at) / Fold change /veh KRTAP5-7 /// NADSYN1 (11734609_at) / RFU RASL12 (11751679_a_at) / Fold change /veh RASL12 (11751679_a_at) / RFU CDKN2B (11736163_a_at) / Fold change /veh CDKN2B (11736163_a_at) / RFU PRF1 (11729649_at) / Fold change /veh PRF1 (11729649_at) / RFU, ZNF638 /// ZNF638-IT1 / Fold change vs veh, ZNF638 /// ZNF638-IT1 / RFU, PANK3 / Fold change vs veh, PANK3 / RFU, SH3YL1 / Fold change vs veh, SH3YL1 / RFU, ZEB2 / Fold change vs veh, ZEB2 / RFU, NRIP1 / Fold change vs veh, NRIP1 / RFU, PTTG1IP / Fold change vs veh, PTTG1IP / RFU, CAPN2 / Fold change vs veh, CAPN2 / RFU, MED14 / Fold change vs veh, MED14 / RFU, SNORA58 / Fold change vs veh, SNORA58 / RFU, C1orf63 / Fold change vs veh, C1orf63 / RFU, LRRFIP1 / Fold change vs veh, LRRFIP1 / RFU, NDUFAF7 / Fold change vs veh, NDUFAF7 / RFU, SLC12A2 / Fold change vs veh, SLC12A2 / RFU, IBTK / Fold change vs veh, IBTK / RFU, ESF1 / Fold change vs veh, ESF1 / Fold change vs veh, TMEM50B / RFU, TAOK1 / Fold change vs veh, TAOK1 / RFU, ACBD3 / Fold change vs veh, ACBD3 / RFU, TMA16 / Fold change vs veh, TMA16 / RFU, RWDD3 / Fold change vs veh, RWDD3 / RFU, BCAT1 / Fold change vs veh, BCAT1 / RFU, EDEM3 / Fold change vs veh, EDEM3 / RFU, TMEM33 / Fold change vs veh, TMEM33 / RFU, WDR75 / Fold change vs veh, WDR75 / RFU, AHCTF1 / Fold change vs veh, AHCTF1 / RFU, TFRC / Fold change vs veh, TFRC / RFU, ZDHHC17 / Fold change vs veh, ZDHHC17 / RFU, NOM1 / Fold change vs veh, NOM1 / RFU, ARL8B / Fold change vs veh, ARL8B / RFU, ZBTB11 / Fold change vs veh, ZBTB11 / RFU, TAMM41 / Fold change vs veh, TAMM41 / RFU, KIAA1704 /// LOC100996395 / Fold change vs veh, KIAA1704 /// LOC100996395 / RFU, ING1 / Fold change vs veh, ING1 / RFU, TRMT61B / Fold change vs veh, TRMT61B / RFU, FUBP3 / Fold change vs veh, FUBP3 / RFU, TP53 / Fold change vs veh, TP53 / RFU, TNKS2 / Fold change vs veh, TNKS2 / RFU, ZFP14 / Fold change vs veh, ZFP14 / RFU, ACTR2 / Fold change vs veh, ACTR2 / RFU, PPP3R1 / Fold change vs veh, PPP3R1 / RFU, PIK3R1 / Fold change vs veh, PIK3R1 / RFU, HNRNPA1 / Fold change vs veh, HNRNPA1 / RFU, RNF170 / Fold change vs veh, RNF170 / RFU, ZNF28 / Fold change vs veh, ZNF28 / RFU, RNGTT / Fold change vs veh, RNGTT / RFU, OGT / Fold change vs veh, OGT / RFU, BRD1 / Fold change vs veh, BRD1 / RFU, MARS / Fold change vs veh, MARS / RFU, ZNF655 / Fold change vs veh, ZNF655 / RFU, FAHD1 / Fold change vs veh, FAHD1 / RFU, BDP1 / Fold change vs veh, BDP1 / RFU, LRRCC1 / Fold change vs veh, LRRCC1 / RFU, ARID1A / Fold change vs veh, ARID1A / RFU, ZNF146 / Fold change vs veh, ZNF146 / RFU, ZNF330 / Fold change vs veh, ZNF330 / RFU, GPN3 / Fold change vs veh, GPN3 / RFU, C9orf123 / Fold change vs veh, C9orf123 / RFU, N4BP2L2 / Fold change vs veh, N4BP2L2 / RFU, ARFIP1 / Fold change vs veh, ARFIP1 / RFU, FAM179B / Fold change vs veh, FAM179B / RFU, BCL10 / Fold change vs veh, BCL10 / RFU, UHRF1BP1L / Fold change vs veh, UHRF1BP1L / RFU, BET1 / Fold change vs veh, BET1 / RFU, CNOT2 / Fold change vs veh, CNOT2 / RFU, ZNF268 / Fold change vs veh, ZNF268 / Fold change vs veh, ZNF507 / RFU, DGCR2 / Fold change vs veh, DGCR2 / RFU, WDSUB1 / Fold change vs veh, WDSUB1 / Fold change vs veh, HSP90B1 /// MIR3652 / RFU, ADSS / Fold change vs veh, ADSS / RFU, GK / Fold change vs veh, GK / RFU, ZNF148 / Fold change vs veh, ZNF148 / RFU, TAF9 / Fold change vs veh, TAF9 / RFU, SLC1A5 / Fold change vs veh, SLC1A5 / RFU, SLMO2 / Fold change vs veh, SLMO2 / RFU, ABCC4 / Fold change vs veh, ABCC4 / RFU, LOC101060439 /// RAP1B / Fold change vs veh, LOC101060439 /// RAP1B / RFU, RFX7 / Fold change vs veh, RFX7 / RFU, GTPBP10 / Fold change vs veh, GTPBP10 / RFU, CNEP1R1 / Fold change vs veh, CNEP1R1 / RFU, BIVM-ERCC5 /// ERCC5 / Fold change vs veh, BIVM-ERCC5 /// ERCC5 / RFU, ILF3 / Fold change vs veh, ILF3 / RFU 11762660_at / Fold change /veh 11762660_at / RFU VCAN (11757783_s_at) / Fold change /veh VCAN (11757783_s_at) / RFU DDX43 (11728927_at) / Fold change /veh DDX43 (11728927_at) / RFU KRT8 (11758188_x_at) / Fold change /veh KRT8 (11758188_x_at) / RFU NKD1 (11759106_at) / Fold change /veh NKD1 (11759106_at) / RFU SRD5A1 (11742802_a_at) / Fold change /veh SRD5A1 (11742802_a_at) / RFU TPSAB1 /// TPSB2 (11721975_s_at) / Fold change /veh TPSAB1 /// TPSB2 (11721975_s_at) / RFU GSTM3 (11746129_a_at) / Fold change /veh GSTM3 (11746129_a_at) / RFU IL23R (11737362_x_at) / Fold change /veh IL23R (11737362_x_at) / RFU TMEM51 (11727254_a_at) / Fold change /veh TMEM51 (11727254_a_at) / RFU PIWIL2 (11732686_x_at) / Fold change /veh PIWIL2 (11732686_x_at) / RFU ORM1 (11744905_x_at) / Fold change /veh ORM1 (11744905_x_at) / RFU CCDC152 (11743942_at) / Fold change /veh CCDC152 (11743942_at) / RFU ECM1 (11717891_a_at) / Fold change /veh ECM1 (11717891_a_at) / RFU IL23R (11748794_a_at) / Fold change /veh IL23R (11748794_a_at) / RFU TNFAIP8L3 (11732012_x_at) / Fold change /veh TNFAIP8L3 (11732012_x_at) / RFU MBOAT4 (11741988_at) / Fold change /veh MBOAT4 (11741988_at) / RFU 11764193_at / Fold change /veh 11764193_at / RFU TMEM53 (11763286_at) / Fold change /veh TMEM53 (11763286_at) / RFU MAGEB2 (11727129_at) / Fold change /veh MAGEB2 (11727129_at) / RFU TMEM200A (11744735_a_at) / Fold change /veh TMEM200A (11744735_a_at) / RFU CCDC152 (11751479_a_at) / Fold change /veh CCDC152 (11751479_a_at) / RFU FAM211A (11726209_a_at) / Fold change /veh FAM211A (11726209_a_at) / RFU RGS16 (11746705_a_at) / Fold change /veh RGS16 (11746705_a_at) / RFU VCAN (11755009_s_at) / Fold change /veh VCAN (11755009_s_at) / RFU RHOB (11743442_s_at) / Fold change /veh RHOB (11743442_s_at) / RFU RGS16 (11720943_a_at) / Fold change /veh RGS16 (11720943_a_at) / RFU RGS16 (11720944_at) / Fold change /veh RGS16 (11720944_at) / RFU, VPS4B / Fold change vs veh, VPS4B / RFU, CREB1 / Fold change vs veh, CREB1 / RFU, DNAJC13 / Fold change vs veh, DNAJC13 / RFU, GNAQ / Fold change vs veh, GNAQ / RFU, CDK5R1 / Fold change vs veh, CDK5R1 / RFU, ZRANB3 / Fold change vs veh, ZRANB3 / RFU, CUL4A / Fold change vs veh, CUL4A / RFU, CCNY / Fold change vs veh, CCNY / RFU, UFL1 / Fold change vs veh, UFL1 / RFU, COG3 / Fold change vs veh, COG3 / RFU, DIAPH2 / Fold change vs veh, DIAPH2 / RFU, SKA2 / Fold change vs veh, SKA2 / RFU, AFF3 / Fold change vs veh, AFF3 / RFU, LMF1 / Fold change vs veh, LMF1 / RFU, IPO11 / Fold change vs veh, IPO11 / RFU, DFFB / Fold change vs veh, DFFB / RFU, FOXP1 / Fold change vs veh, FOXP1 / RFU, CARD8 / Fold change vs veh, CARD8 / RFU, STRN3 / Fold change vs veh, STRN3 / RFU, ADK / Fold change vs veh, ADK / RFU, RASSF2 / Fold change vs veh, RASSF2 / RFU, WIPF1 / Fold change vs veh, WIPF1 / RFU, LARP1B / Fold change vs veh, LARP1B / RFU, RASA1 / Fold change vs veh, RASA1 / RFU, RB1 / Fold change vs veh, RB1 / RFU, PPFIA1 / Fold change vs veh, PPFIA1 / RFU, MAT2A / Fold change vs veh, MAT2A / RFU, CCT5 / Fold change vs veh, CCT5 / RFU, WDR92 / Fold change vs veh, WDR92 / RFU, CUX1 / Fold change vs veh, CUX1 / RFU, TTC7A / Fold change vs veh, TTC7A / RFU, TMEM135 / Fold change vs veh, TMEM135 / RFU, DEPTOR / Fold change vs veh, DEPTOR / RFU, CPM / Fold change vs veh, CPM / RFU, DNAJB6 / Fold change vs veh, DNAJB6 / RFU, CACNA2D3 / Fold change vs veh, CACNA2D3 / RFU, DTX4 / Fold change vs veh, DTX4 / RFU, TFCP2 / Fold change vs veh, TFCP2 / RFU, GMCL1 /// GMCL1P1 / Fold change vs veh, GMCL1 /// GMCL1P1 / RFU, AEBP2 / Fold change vs veh, AEBP2 / RFU, SNHG1 /// SNORD22 /// SNORD25 /// SNORD26 /// SNORD27 /// SNORD28 /// SNORD29 /// SNORD31 / Fold change vs veh, SNHG1 /// SNORD22 /// SNORD25 /// SNORD26 /// SNORD27 /// SNORD28 /// SNORD29 /// SNORD31 / Fold change (Aza/veh), C12orf56 (ProbeSet 11735607_a_at) / Fold change (ACY-1035/veh), C12orf56 (ProbeSet 11735607_a_at) / Fold change (Aza/veh), FGFR1OP (ProbeSet 11751329_s_at) / Fold change (ACY-1035/veh), FGFR1OP (ProbeSet 11751329_s_at) / Fold change (Aza/veh), VPS36 (ProbeSet 11739960_a_at) / Fold change (ACY-1035/veh), VPS36 (ProbeSet 11739960_a_at) / RFU SYPL1 (11715823_x_at) / Fold change /veh SYPL1 (11715823_x_at) / RFU IGFBP7 (11715501_s_at) / Fold change /veh IGFBP7 (11715501_s_at) / RFU REEP3 (11722064_at) / Fold change /veh REEP3 (11722064_at) / RFU IGLL1 (11728026_x_at) / Fold change /veh IGLL1 (11728026_x_at): dose or concentration left out as unconfirmed
Settings: ProbeSet 11741123_x_at; LIST D

Nc1ncn([C@@H]2O[C@H](CO)[C@@H](O)[C@H]2O)c(=O)n1 [azacitidine]
RFU, ADK: 188.85 RFU
